Like-named read-outs stand apart in the source and are kept apart here.
Columns and labels:
DCN1 protein = DCN1 protein (Homo sapiens (Human), UniProt Q96GG9); assay: Intact protein MS analysis with the RapidFire-TOF system (covalent adduct formation); assay type: binding; conditions: 400 nM DCN1, incubated at room temperature for 3 hours
Method: (§1) DCN1 protein, His-TEV-DCN1, were expressed in E. Coli. The His-tagged protein was first purified with an Ni-NTA column. The His-tag was cleaved using His-tag TEV protease and the His-tags were removed using a second Ni-NTA column. Protein purity was verified with SDS-PAGE and intact MS. DCN1 was dissolved in a buffer containing 25 mM Tris-HCl, 200 mM NaCl, and 1 mM DTT at 400 nM. 11 concentrations of compounds were added to the DCN1 solution and incubated at room temperature for 3 hours, unless otherwise specified. The reaction plates were quenched by adding 0.2% formic acid. Quenched assay plates were analyzed with an Agilent RapidFire 360 system connected to an Agilent 6545 Q-TOF mass spectrometer equipped with an AJS source. 10 μL of sample volume was loaded onto a custom packed cartridge (4 μL, PLRP-S 30 μm/1000 Å pore; Optimize Technologies) with loading buffer (ddH2O with 0.09% (vol/vol) formic acid and 0.01% (vol/vol) trifluoroacetic acid; 1.25 ml/min) for 6 seconds before being eluted directly into the mass spectrometer in elution buffer (80% acetonitrile with 0.09% (vol/vol) formic acid and 0.01% (vol/vol) trifluoroacetic acid; 0.5 ml/min) for 7 seconds. The cartridge was re-equilibrated with loading buffer for 1 second before collection of the next sample. The Q-TOF was operated in TOF-only positive ionization mode set to the following parameters: Gas Temp=350 C, Drying Gas=7 l/min, Nebulizer=50 psi, Sheath Gas Temp=400 C, Sheath Gas Flow=12 l/min, VCap=4000 V, Nozzle Voltage=1000 V, Fragmentor=125 V, Skimmer=65 V and Oct 1 RF Vpp=750V. Raw MS data files were deconvoluted and analyzed using the Agilent MassHunter Bioconfirm software package to identify both parent protein and expected compound adduct mass signatures.
An MS assay was performed to evaluate the ability of the compounds to covalently modify DCN-1.
as §1, with “Vcap=4000” for “VCap=4000”

[1] = target: DCN1 (DCUND1) protein PONY domain (Homo sapiens (Human), UniProt Q96GG9); assay: TR-FRET assay (binding to DCN-1, displacement of FAM-labeled probe)
Outline: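 Compounds read at 1, 5 and 24 h, 0.1% final DMSO, by TR-FRET between terbium-streptavidin on biotinylated DCN1 PONY domain (E. coli) and a FAM-tagged non-covalent inhibitor probe. Two setups used, 5 nM protein with 20 nM labelled probe, or 0.31 nM protein with 100 nM labelled plus 800 nM unlabelled probe; buffer had TritonX and 200 mM NaCl. % activity relative to high (with probe) and low (without probe) controls.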

[2] = 24 hr after treatment with compound, read-out: TR FRET IC50 24 hr
[3] = TR FRET IC50 1 hr (nM), 1 hr after treatment with compound
[4] = read-out: TR FRET IC50 1 hr, 1 hr after treatment with compound

Sequence of DCN1 (DCUND1) protein PONY domain (Q96GG9 60-248): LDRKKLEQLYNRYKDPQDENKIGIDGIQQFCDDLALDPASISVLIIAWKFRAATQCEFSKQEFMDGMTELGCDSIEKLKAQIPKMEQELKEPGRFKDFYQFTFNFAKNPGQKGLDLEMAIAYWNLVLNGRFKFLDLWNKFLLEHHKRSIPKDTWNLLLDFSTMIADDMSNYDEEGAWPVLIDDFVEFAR
Sequence of DCN1 protein (Q96GG9 whole entry): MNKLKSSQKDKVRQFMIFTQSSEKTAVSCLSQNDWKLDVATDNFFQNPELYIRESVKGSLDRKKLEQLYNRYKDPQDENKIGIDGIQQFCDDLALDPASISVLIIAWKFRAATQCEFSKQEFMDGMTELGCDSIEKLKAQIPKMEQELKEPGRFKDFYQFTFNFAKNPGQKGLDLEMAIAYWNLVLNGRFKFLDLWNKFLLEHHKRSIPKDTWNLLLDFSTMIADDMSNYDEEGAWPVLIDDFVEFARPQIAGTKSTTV

C=C(CN(C)C)C(=O)Nc1ccccc1[C@H]1c2cnn(-c3ccccc3)c2N(CC)C(=O)[C@@H]1NC(=O)c1cccc(C(F)(F)F)c1 (racemic) [Compound I-177]
Emax (DCN1 protein): 30 to 80%

CCN1C(=O)[C@@H](NC(=O)c2cccc(C(F)(F)F)c2)[C@@H](c2cccc(NS(=O)(=O)CCl)c2)c2c(C)nn(-c3ccccc3)c21 (racemic) [Compound I-184]
Emax (DCN1 protein): 0 to 30%

CCN1C(=O)[C@H](NC(=O)c2cccc(C(F)(F)F)c2)[C@@H](c2ccccc2NC(=O)/C(C#N)=C/C2CC2)c2cnn(-c3ccccc3)c21 (racemic) [Compound I-179]
Emax (DCN1 protein): 80 to 100%

CCN1C(=O)[C@H](NC(=O)c2cccc(C(F)(F)F)c2)[C@@H](c2ccccc2NC(=O)/C=C/CN2CCOCC2)c2cnn(-c3ccccc3)c21 (racemic) [Compound I-176]
Emax (DCN1 protein): 0 to 30%

C/C=C/C(=O)Nc1cccc([C@H]2c3c(C)nn(-c4ccccc4)c3N(CC)C(=O)[C@@H]2NC(=O)c2cccc(C(F)(F)F)c2)c1 (racemic) [Compound I-164]
Emax (DCN1 protein): 0 to 30%

C=C(C)C(=O)Nc1ccccc1[C@H]1c2cnn(-c3ccccc3)c2N(CC)C(=O)[C@@H]1NC(=O)c1cccc(C(F)(F)F)c1 (racemic) [Compound I-183]
Emax (DCN1 protein): 0 to 30%

C#CC(=O)Nc1ccccc1[C@H]1c2cnn(-c3ccccc3)c2N(CC)C(=O)[C@@H]1NC(=O)c1cccc(C(F)(F)F)c1 (racemic) [Compound I-194]
Emax (DCN1 protein): 80 to 100%

CCN1C(=O)[C@H](NC(=O)c2cccc(C(F)(F)F)c2)[C@@H](c2ccccc2NC(=O)C(F)Cl)c2cnn(-c3ccccc3)c21 (mixture of isomers) [Compound I-174]
Emax (DCN1 protein): 0 to 30%

CCN1C(=O)[C@H](NC(=O)c2cccc(C(F)(F)F)c2)[C@@H](c2ccccc2NC(=O)/C=C/C(F)(F)F)c2cnn(-c3ccccc3)c21 (racemic) [Compound I-168]
Emax (DCN1 protein): 0 to 30%

CCN1C(=O)[C@H](NC(=O)c2cccc(C(F)(F)F)c2)[C@@H](c2cccc(NC(=O)C3CCC3)c2)c2c(C)nn(-c3ccccc3)c21 (racemic) [Compound I-123]
IC50 [1, 2]: 1000 to 3000 nM
IC50 [1, 3]: 1000 to 3000 nM

C/C=C(\CN1CCN(C2COC2)CC1)C(=O)NCc1cccc([C@@H]2c3cnn(-c4ccccc4)c3N(CC)C(=O)[C@H]2NC(=O)c2ccn(C3CC3)n2)c1 [Compound I-288]
IC50 [1, 2]: ≤ 200 nM
IC50 [1, 3]: 200 to 1000 nM

CCN1C(=O)[C@H](NC(=O)c2cccc(C(F)(F)F)c2)[C@@H](c2ccccc2NC(=O)C23CC2C3)c2cnn(-c3ccccc3)c21 (mixture of isomers) [Compound I-45, {N}-[2-[˜{rac}-(4˜{S},5˜{R})-7-ethyl-6-oxo-1-phenyl-5-[[3-(trifluoromethyl)benzoyl]amino]-4,5-dihydropyrazolo[3,4-b]pyridin-4-yl]phenyl]bicyclo[1.1.0]butane-1-carboxamide]
IC50 [1, 2]: 1000 to 3000 nM
IC50 [1, 3]: 1000 to 3000 nM

CCC(=O)NCc1cccc([C@@H]2c3cnn(-c4ccccc4)c3N(CC)C(=O)[C@H]2NC(=O)c2nccc(C(F)(F)F)n2)c1 [Compound I-358]
IC50 [1, 2]: 1000 to 3000 nM
IC50 [1, 3]: 1000 to 3000 nM

CCN1C(=O)[C@H](NC(=O)c2cccc(C(F)(F)F)c2)[C@@H](c2ccccc2N(C)C#N)c2cnn(-c3ccccc3)c21 (racemic) [Compound I-90, ˜{N}—[˜{rac}-(4˜{S},5˜{R})-4-[2-[cyano(methyl)amino]phenyl]-7-ethyl-6-oxo-1-phenyl-4,5-dihydropyrazolo[3,4-b]pyridin-5-yl]-3-(trifluoromethyl)benzamide]
IC50 [1, 2]: 1000 to 3000 nM
IC50 [1, 3]: 1000 to 3000 nM

CCN1C(=O)[C@@H](NC(=O)c2cccc(C(F)(F)F)c2)[C@H](c2cccc(CNC/C=C/C(=O)N3CCCC3)c2)c2cnn(-c3ccccc3)c21 [Compound I-307]
IC50 [1, 2]: 1000 to 3000 nM
IC50 [1, 3]: 1000 to 3000 nM

C=C(CN1CCOCC1)C(=O)NCc1cccc([C@@H]2c3cnn(-c4ccccc4)c3N(CC)C(=O)[C@H]2NC(=O)c2ccn(CC(F)(F)F)n2)c1 [Compound I-297]
IC50 [1, 2]: ≤ 200 nM
IC50 [1, 3]: 200 to 1000 nM

C=C(CC(=O)NCc1cccc([C@H]2c3cnn(-c4ccccc4)c3N(CC)C(=O)[C@@H]2NC(=O)c2cccc(C(F)(F)F)c2)c1)C(=O)OC [Compound I-109]
IC50 [1, 2]: 1000 to 3000 nM
IC50 [1, 3]: 1000 to 3000 nM

C=C(CN1CCC1)C(=O)NCc1cccc([C@@H]2c3cnn(-c4ccccc4)c3N(CC)C(=O)[C@H]2NC(=O)c2nccc(C(F)(F)F)n2)c1 [Compound I-162]
IC50 [1, 2]: ≤ 200 nM
IC50 [1, 4]: ≤ 200 nM

C=C(C(=O)NCc1cccc([C@@H]2c3cnn(-c4ccccc4)c3N(CC)C(=O)[C@H]2NC(=O)c2nccc(C(F)(F)F)n2)c1)C(C)N1CCC12COC2 (stereo partly drawn) [Compound I-256]
IC50 [1, 2]: ≤ 200 nM
IC50 [1, 3]: 200 to 1000 nM

C=C(CN(C)C1COC1)C(=O)Nc1cccc([C@H]2c3c(C)nn(-c4ccccc4)c3N(CC)C(=O)[C@@H]2NC(=O)c2cccc(C(F)(F)F)c2)c1 (racemic) [Compound I-3]
IC50 [1, 2]: ≤ 200 nM
IC50 [1, 4]: ≤ 200 nM

C=C(CN1CCN(C2COC2)CC1)C(=O)NCc1cccc([C@@H]2c3cnn(-c4ccccc4)c3N(CC)C(=O)[C@H]2NC(=O)c2nccc(C(F)(F)F)n2)n1 [Compound I-333]
IC50 [1, 2]: ≤ 200 nM
IC50 [1, 3]: 200 to 1000 nM

CCN1C(=O)[C@@H](NC(=O)c2cccc(C(F)(F)F)c2)[C@H](c2ccccc2CNC(=O)C2=CCC2)c2cnn(-c3ccccc3)c21 (racemic) [Compound I-101]
IC50 [1, 2]: 1000 to 3000 nM
IC50 [1, 3]: 1000 to 3000 nM

CCN1C(=O)[C@@H](NC(=O)c2cccc(C(F)(F)F)c2)[C@H](c2ccccc2NC(=O)CCl)c2c(C)nn(-c3ccccc3)c21 [Compound I-52, N-((4R,5S)-4-(2-(2-chloroacetamido)phenyl)-7-ethyl-3-methyl-6-oxo-1-phenyl-4,5,6,7-tetrahydro-1H-pyrazolo[3,4-b]pyridin-5-yl)-3-(trifluoromethyl)benzamide]
IC50 [1, 2]: ≤ 200 nM
IC50 [1, 3]: 1000 to 3000 nM

C/C=C(\CN1CCOCC1)C(=O)NCc1cccc([C@@H]2c3cnn(-c4ccccc4)c3N(CC)C(=O)[C@H]2NC(=O)c2nccc(C(F)(F)F)n2)c1 [Compound I-363]
IC50 [1, 2]: ≤ 200 nM
IC50 [1, 3]: 200 to 1000 nM

CCN1C(=O)[C@@H](NC(=O)c2cccc(C(F)(F)F)c2)[C@H](c2cccc(CNC(=O)C3=CCN(C)C3)c2)c2cnn(-c3ccccc3)c21 [Compound I-54]
IC50 [1, 2]: ≤ 200 nM
IC50 [1, 3]: 1000 to 3000 nM

CCN1C(=O)[C@H](NC(=O)c2cccc(C(F)(F)F)c2)[C@@H](c2cccc(NC(=O)C3=CCC3)c2)c2c(C)nn(-c3ccccc3)c21 [Compound I-94, N-((4S,5R)-4-(3-(cyclobut-1-ene-1-carboxamido)phenyl)-7-ethyl-3-methyl-6-oxo-1-phenyl-4,5,6,7-tetrahydro-1H-pyrazolo[3,4-b]pyridin-5-yl)-3-(trifluoromethyl)benzamide]
IC50 [1, 2]: 1000 to 3000 nM
IC50 [1, 4]: 1000 to 3000 nM

CCN1C(=O)[C@H](NC(=O)c2cccc(C(F)(F)F)c2)[C@@H](c2cccc(CNC(=O)C3=CCN(C)C3)c2)c2c(C)nn(-c3ccccc3)c21 [Compound I-362, N-(3-((4S,5R)-7-ethyl-3-methyl-6-oxo-1-phenyl-5-(3-(trifluoromethyl)benzamido)-4,5,6,7-tetrahydro-1H-pyrazolo[3,4-b]pyridin-4-yl)benzyl)-1-methyl-2,5-dihydro-1H-pyrrole-3-carboxamide]
IC50 [1, 2]: 1000 to 3000 nM
IC50 [1, 3]: 1000 to 3000 nM
